In patent US20060030603A1, “Novel aryl urea analogs and use thereof as antibacterial agents” (priority 2004, published 2006):
≈ marks a conversion by molar mass, not a printed value. Read-outs that look alike come from different tables or passages of the source. Values belong to the compound of their own block, whether it stands above or below them.

Key:
[1] = test system: E. faecalis ATCC 29212; experiment: MIC assay, E. faecalis; type: cell-based
Protocol: (§1) In vitro structure/activity relationship (“SAR”) tests were performed according to the following procedure: MIC assays were carried out in a 150 μL volume in duplicate in 96-well clear flat-bottom plates. The bacterial suspension from an overnight culture growth in the appropriate medium was added to a solution of test compound in 0.5% DMSO in water. Final bacterial inoculum was approximate 10^3-10^4 CFU/well. The percentage growth of the bacteria in the test wells relative to that observed for a control well containing no compound was determined by measuring absorbance at 595 nm (A595) after 20-24 h at 37° C. […] The bacterial strains used for the assays include S. aureus ATCC 13709, S. pyogenes ATCC 49399, E. faecalis ATCC 29212, E. faecium ATCC 6569, E. coli ATCC 25922, K. pneumoniae ATCC 13383, P. vulgaris ATCC 8427, P. aeruginosa ATCC 25416. The results of the in vitro SAR tests are in Tables 1-3.

[2] = test system: S. pyogenes ATCC 49399; experiment: MIC assay, S. pyogenes; type: cell-based
Protocol: as §1

[3] = test system: S. aureus (ATCC 13709); experiment: Mouse Protection Assay (lethal murine model of bacterial infection); type: in vivo, ICR-CD-1 female mice; details: 14b HCl salt
Protocol: The in vivo tests were preformed according to the following procedure:
Mouse Protection Assay: 10 mice/dose group (ICR-CD-1 female mice 18-20 grams, Charles River) were infected with a lethal dose (10^6 CFU/mouse) of S. aureus (ATCC 13709) suspended in 7.5% hog Gastric Mucin IP. The infected animals were treated at 1 h and 3 h post infection with either compound 12e (lactate salt) from 37 mg/kg down to 2.3 mg/kg or compound 14b (HCl salt) from 75 mg/kg down to 2.3 mg/kg (0.1 mL/mouse). The positive control drug was Vancomycin (Eli Lilly) 1 mg/kg.

[4] = Acute Toxicity Study (maximum tolerated dose); type: in vivo; details: observed seven days; for toxic dose via the IP route: intraperitoneal, 150 down to 19 mg/kg tested; for survival in the subQ group: subcutaneous, 150 down to 19 mg/kg, compound appeared to precipitate at injection site
Protocol: Acute Toxicity Study: The maximum tolerated dose for either compound 12e or 14b was determined by administering the compound from 150 mg/kg down to 19 mg/kg given either intraperitoneally (IP) or subcutaneously (subQ). […] On autopsy some of the compound appeared to precipitate at the injection site thereby reducing the effective dose. Via the IP route compound 12e was toxic down to 37 mg/kg and compound 14b was only toxic at 150 mg/kg.

[5] = test system: E. faecium ATCC 6569; experiment: MIC assay, E. faecium; type: cell-based
Protocol: as §1

[6] = test system: P. aeruginosa ATCC 25416; experiment: MIC assay, P. aeruginosa; type: cell-based
Protocol: as §1

[7] = test system: P. vulgaris ATCC 8427; experiment: MIC assay, P. vulgaris; type: cell-based
Protocol: as §1

[8] = test system: K. pneumoniae ATCC 13383; experiment: MIC assay, K. pneumoniae; type: cell-based
Protocol: as §1

[9] = test system: E. coli ATCC 25922; experiment: MIC assay, E. coli; type: cell-based
Protocol: as §1

[10] = log P; type: physicochemical
[11] = test system: S. aureus ATCC 13709; experiment: MIC assay, S. aureus; type: cell-based; details: Staphylococcus aureus
Protocol: as §1

[12] = MIT HUH-7 CC50 48h cytotoxicity; type: cell-based; details: human, HUH-7 cells; HUH-7, 48h
[13] = Enterococcus faecalis, ATCC29212; read-out: MIC E. faecalis ATCC 29212
[14] = Streptococcus pyogenes, ATCC49399; read-out: MIC S. pyogenes ATCC 49399
[15] = 2.3 × 2 mg/Kg, 1 h and 3 h post infection, one week, 12e lactate salt
[16] = 4.7 × 2 mg/Kg, 1 h and 3 h post infection, one week, 12e lactate salt
[17] = 9.4 × 2 mg/Kg, 1 h and 3 h post infection, one week, 12e lactate salt
[18] = 18.8 × 2 mg/Kg, 1 h and 3 h post infection, one week, 12e lactate salt
[19] = 37.5 × 2 mg/Kg, 1 h and 3 h post infection, one week, 12e lactate salt
[20] = Enterococcus faecium, ATCC6569; read-out: MIC E. faecium ATCC 6569
[21] = Pseudomonas aeruginosa, ATCC25416; read-out: MIC P. aeruginosa ATCC 25416
[22] = Proteus vulgaris, ATCC8427; read-out: MIC P. vulgaris ATCC 8427
[23] = Klebsiella pneumoniae, ATCC13383; read-out: MIC K. pneumoniae ATCC 13383
[24] = Escherichia coli, ATCC25922; read-out: MIC E. coli ATCC 25922
[25] = ATCC13709, Table 2, benzylamino group modified analogs, read-out: MIC S. aureus
[26] = ATCC13709, Table 4, read-out: MIC S. aureus ATCC 13709

Compound: O=C(NCCCNCc1ccc(-c2ccccc2)cc1)Nc1ccc(C(F)(F)F)cc1 [12e, 1-{3-[(Biphenyl-4-ylmethyl)-amino]-propyl}-3-(4-trifluoromethyl-phenyl)-urea]
MIC [1, 13]: > 100 µM
MIC [2, 14]: 3 to 6 µM (≈ 1.28 to 2.56 µg/mL)
Mice Alive/Total [3, 15]: 0/10
Mice Alive/Total [3, 16]: 2/10
Mice Alive/Total [3, 17]: 4/10
Mice Alive/Total [3, 18]: 3/10
Mice Alive/Total [3, 19]: 3/10
toxic dose via the IP route [4]: ≥ 37 mg/kg
survival in the subQ group [4]: all animals survived at all doses tested
MIC [5, 20]: > 100 µM
MIC [6, 21]: > 100 µM
MIC [7, 22]: 12 to 25 µM (≈ 5.13 to 10.7 µg/mL)
MIC [8, 23]: 6 to 12 µM (≈ 2.56 to 5.13 µg/mL)
MIC [9, 24]: 6 to 12 µM (≈ 2.56 to 5.13 µg/mL)
logP [10]: 4.91
MIC [11, 25]: 3 to 6 µM (≈ 1.28 to 2.56 µg/mL)
MIC [11, 26]: 3 to 6 µM (≈ 1.28 to 2.56 µg/mL)
CC50 at 48 h [12]: 25 to 50 µM

Compound: O=C(NCCCNCc1cc(Br)cc(Br)c1)Nc1ccc(Cl)c(Cl)c1 [9f, 1-[3-(3,5-Dibromo-benzylamino)-propyl]-3-(3,4-dichloro-phenyl)-urea]
MIC ([1]; Enterococcus faecalis, ATCC29212, read-out: MIC E. faecalis ATCC 29212): 6 to 12 µM (≈ 3.06 to 6.12 µg/mL)
MIC ([2]; Streptococcus pyogenes, ATCC49399, read-out: MIC S. pyogenes ATCC 49399): 6 to 12 µM (≈ 3.06 to 6.12 µg/mL)
MIC ([5]; Enterococcus faecium, ATCC6569, read-out: MIC E. faecium ATCC 6569): > 100 µM
MIC ([6]; Pseudomonas aeruginosa, ATCC25416, read-out: MIC P. aeruginosa ATCC 25416): > 100 µM
MIC ([7]; Proteus vulgaris, ATCC8427, read-out: MIC P. vulgaris ATCC 8427): 12 to 25 µM (≈ 6.12 to 12.8 µg/mL)
MIC ([8]; Klebsiella pneumoniae, ATCC13383, read-out: MIC K. pneumoniae ATCC 13383): 6 to 12 µM (≈ 3.06 to 6.12 µg/mL)
MIC ([9]; Escherichia coli, ATCC25922, read-out: MIC E. coli ATCC 25922): 12 to 25 µM (≈ 6.12 to 12.8 µg/mL)
logP [10]: 4.89
MIC ([11]; ATCC13709, read-out: MIC S. aureus): 3 to 6 µM (≈ 1.53 to 3.06 µg/mL)
MIC ([11]; ATCC13709, read-out: MIC S. aureus ATCC 13709): 3 to 6 µM (≈ 1.53 to 3.06 µg/mL)

Compound: CN(CCCNC(=O)Nc1ccc(C(F)(F)F)cc1)CCCOc1ccc(Br)cc1Br [14b, 1-(3-{[3-(2,4-Dibromo-phenoxy)-propyl]-methyl-amino}-propyl)-3-(4-trifluoromethyl-phenyl)-urea]
MIC [1, 13]: 3 to 6 µM (≈ 1.7 to 3.4 µg/mL)
MIC [2, 14]: 3 to 6 µM (≈ 1.7 to 3.4 µg/mL)
Mice Alive/Total [3, 15]: 3/10
Mice Alive/Total [3, 16]: 4/10
Mice Alive/Total [3, 17]: 6/10
Mice Alive/Total [3, 18]: 6/10
Mice Alive/Total [3, 19]: 7/10
Mice Alive/Total ([3]; 75 × 2 mg/Kg, treated 1 h and 3 h post infection, observed one week): 4/10
toxic dose via the IP route [4]: 150 mg/kg
survival in the subQ group [4]: all animals survived at all doses tested
MIC [5, 20]: > 100 µM
MIC [6, 21]: > 100 µM
MIC [7, 22]: 12 to 25 µM (≈ 6.81 to 14.2 µg/mL)
MIC [8, 23]: 3 to 6 µM (≈ 1.7 to 3.4 µg/mL)
MIC [9, 24]: 12 to 25 µM (≈ 6.81 to 14.2 µg/mL)
logP [10]: 5.3
MIC [11, 25]: 3 to 6 µM (≈ 1.7 to 3.4 µg/mL)
MIC [11, 26]: 3 to 6 µM (≈ 1.7 to 3.4 µg/mL)
CC50 at 48 h [12]: > 100 µM

The next lines start with results.

MIC [1, 13]: 3 to 6 µM (≈ 1.33 to 2.66 µg/mL)
MIC [2, 14]: 3 to 6 µM (≈ 1.33 to 2.66 µg/mL)
MIC [5, 20]: > 100 µM
MIC [6, 21]: > 100 µM
MIC [7, 22]: 12 to 25 µM (≈ 5.32 to 11.1 µg/mL)
MIC [8, 23]: 6 to 12 µM (≈ 2.66 to 5.32 µg/mL)
MIC [9, 24]: 6 to 12 µM (≈ 2.66 to 5.32 µg/mL)
logP [10]: 4.77
MIC [11, 25]: 3 to 6 µM (≈ 1.33 to 2.66 µg/mL)
MIC [11, 26]: 3 to 6 µM (≈ 1.33 to 2.66 µg/mL)
Compound: O=C(NCCCNCc1ccc(Oc2ccccc2)cc1)Nc1ccc(C(F)(F)F)cc1 [12h, 1-[3-(4-Phenoxy-benzylamino)-propyl]-3-(4-trifluoromethyl-phenyl)-urea]
CC50 at 48 h [12]: 12.5 to 25 µM

MIC [1, 13]: 6 to 12 µM (≈ 3.32 to 6.64 µg/mL)
MIC [2, 14]: 3 to 6 µM (≈ 1.66 to 3.32 µg/mL)
MIC [5, 20]: 6 to 12 µM (≈ 3.32 to 6.64 µg/mL)
MIC [6, 21]: > 100 µM
MIC [7, 22]: 12 to 25 µM (≈ 6.64 to 13.8 µg/mL)
MIC [8, 23]: 3 to 6 µM (≈ 1.66 to 3.32 µg/mL)
MIC [9, 24]: 12 to 25 µM (≈ 6.64 to 13.8 µg/mL)
logP [10]: 5.1
MIC [11, 25]: 3 to 6 µM (≈ 1.66 to 3.32 µg/mL)
MIC [11, 26]: 3 to 6 µM (≈ 1.66 to 3.32 µg/mL)
Compound: CCOc1c(Br)cc(Br)cc1CNCCCNC(=O)Nc1ccc(C(F)(F)F)cc1 [12s, 1-[3-(3,5-Dibromo-2-ethoxy-benzylamino)-propyl]-3-(4-trifluoromethyl-phenyl)-urea]
CC50 at 48 h [12]: 50 to 100 µM

MIC [1, 13]: 6 to 12 µM (≈ 2.44 to 4.89 µg/mL)
MIC [2, 14]: 3 to 6 µM (≈ 1.22 to 2.44 µg/mL)
MIC [5, 20]: 3 to 6 µM (≈ 1.22 to 2.44 µg/mL)
MIC [6, 21]: > 100 µM
MIC [7, 22]: 12 to 25 µM (≈ 4.89 to 10.2 µg/mL)
MIC [8, 23]: 3 to 6 µM (≈ 1.22 to 2.44 µg/mL)
MIC [9, 24]: 6 to 12 µM (≈ 2.44 to 4.89 µg/mL)
logP [10]: 4.94
MIC [11, 25]: 3 to 6 µM (≈ 1.22 to 2.44 µg/mL)
MIC [11, 26]: 3 to 6 µM (≈ 1.22 to 2.44 µg/mL)
Compound: CC(C)(C)c1ccc(CNCCCNC(=O)Nc2ccc(C(F)(F)F)cc2)cc1 [12i, 1-[3-(4-tert-Butyl-benzylamino)-propyl]-3-(4-trifluoromethyl-phenyl)-urea]
